32 compounds from patent US20260158031A1, “AROMATIC HETEROCYCLIC COMPOUND, PHARMACEUTICAL COMPOSITION CONTAINING THE SAME, AND USE THEREOF” (HANG ZHOU YUHONG PHARMATECH CO., LTD., priority 2021, published 2026) can be followed below.

Structures are written as SMILES. Bounds are passed on as bounds.

The target of the first assay is T1, JAK3 kinase (Homo sapiens, UniProt P52333).
T1 sequence (P52333 1-1124): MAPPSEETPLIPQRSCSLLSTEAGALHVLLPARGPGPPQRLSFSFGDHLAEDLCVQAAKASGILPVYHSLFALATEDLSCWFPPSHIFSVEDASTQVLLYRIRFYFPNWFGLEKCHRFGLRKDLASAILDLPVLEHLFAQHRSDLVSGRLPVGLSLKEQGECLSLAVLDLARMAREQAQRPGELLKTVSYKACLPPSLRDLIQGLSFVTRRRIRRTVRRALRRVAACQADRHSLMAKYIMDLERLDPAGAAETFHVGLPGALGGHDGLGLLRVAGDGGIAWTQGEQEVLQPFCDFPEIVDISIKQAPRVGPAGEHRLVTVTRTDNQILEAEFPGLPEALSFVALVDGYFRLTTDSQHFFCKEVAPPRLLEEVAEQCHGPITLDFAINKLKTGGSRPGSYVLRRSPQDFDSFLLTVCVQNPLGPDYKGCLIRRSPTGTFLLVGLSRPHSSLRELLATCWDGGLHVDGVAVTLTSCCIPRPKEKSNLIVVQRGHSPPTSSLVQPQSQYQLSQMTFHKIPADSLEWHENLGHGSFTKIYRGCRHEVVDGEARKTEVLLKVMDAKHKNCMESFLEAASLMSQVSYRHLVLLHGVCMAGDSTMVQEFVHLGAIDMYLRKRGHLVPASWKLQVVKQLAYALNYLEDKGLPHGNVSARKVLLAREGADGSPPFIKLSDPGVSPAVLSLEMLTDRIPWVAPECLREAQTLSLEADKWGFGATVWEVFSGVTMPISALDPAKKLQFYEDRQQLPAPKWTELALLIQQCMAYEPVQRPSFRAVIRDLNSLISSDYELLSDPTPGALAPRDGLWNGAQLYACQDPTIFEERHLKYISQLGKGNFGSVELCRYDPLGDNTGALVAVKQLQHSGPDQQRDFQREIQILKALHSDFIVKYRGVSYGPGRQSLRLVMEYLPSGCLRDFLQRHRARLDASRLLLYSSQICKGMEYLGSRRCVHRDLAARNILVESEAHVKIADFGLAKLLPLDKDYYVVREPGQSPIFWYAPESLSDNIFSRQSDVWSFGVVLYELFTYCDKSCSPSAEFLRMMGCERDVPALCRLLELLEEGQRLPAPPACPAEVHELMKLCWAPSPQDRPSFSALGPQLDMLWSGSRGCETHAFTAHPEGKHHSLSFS
Put plainly: Mobility shift assay, in vitro JAK3 kinase inhibitory activity. Type of assay: biochemical. The settings on record: mobility shift assay, Example 136. How it is done: A Mobility shift assay was adopted to detect compounds to be tested (see list below) for in vitro inhibitory activity on the enzyme activity of JAK3 kinase.
The compound was dissolved in 100% DMSO to formulate a 10 mM stock solution, which was stored in a −20° C. refrigerator with protection from light.
The compounds were diluted with gradients into solutions with a final concentration of 100 times in a 384-well plate. Then 250 nL was transferred to a 384 reaction plate with Echo550 for later use. 250 nL of 100% DMSO was added into the negative control well and the positive control well respectively. • (3) A kinase solution with a final concentration of 2.5 times was formulated with the 1× Kinase buffer. • (4) The compound wells and the positive control wells were added with 10 μL of the kinase solution with the final concentration of 2.5 times respectively; the negative control wells were added with 10 μL of the 1× Kinase buffer. • (5) The wells were centrifuged at 1,000 rpm for 30 seconds, mixed well by shaking, and then incubated at room temperature for 10 minutes. • (6) A mixed solution of ATP and Kinase substrate 22 with a final concentration of 25/15 times was formulated with a 1× Kinase buffer. • (7) The compound wells, positive control wells and negative control wells of the 384 reaction plate were respectively added with 15 μL of a mixed solution of ATP and the substrate at the final concentration of 25/15 times to start the reaction. • (8) The 384-well plate was centrifuged at 1,000 rpm for 30 seconds, mixed well by shaking, and then incubated at room temperature for 30 minutes. • (9) 30 μL of a detection termination solution was added to stop the kinase reaction, centrifuged at 1,000 rpm for 30 seconds, and mixed well by shaking. • (10) The conversion rate was read with Caliper EZ Reader.
% Inhibition=(Conversion %_max−Conversion %_sample)/(Conversion %_max−Conversion %_min)×100 (1) Calculation Equation
Among them: Conversion %_sample was the conversion rate reading of the sample; Conversion %_min was the mean value of the negative control wells, representing the conversion rate reading of the wells without enzyme activity; Conversion % max was the mean value of the positive control wells, representing the conversion rate reading of the wells without compound inhibition; and % Inhibition represented the percentage inhibition rate.
• by taking the log value of concentration as the X axis and taking the percent inhibition rate as the Y axis, a dose-response curve is fitted by adopting the log (inhibitor) vs. response-Variable slope of the analysis software GraphPad Prism 5, so as to obtain the IC50 value of each compound on the enzyme activity. The calculation equation was Y=Bottom+ (Top−Bottom)/(1+10^((Log IC50−X)*HillSlope)).
Turning to `C=CC(=O)N1CCc2c(c(-c3ccnc4[nH]ccc34)nn2C(C)=O)C1` [YZ001108], the IC50 worked out at 0.35 nM.
On the same count and under the same terms, in the case of `C=CC(=O)N1Cc2c(-c3ccnc4[nH]ccc34)cnn2[C@H](C)C1` [YZ001099] it was 0.2 nM; in that of `C=CC(=O)N1CCCn2ncc(-c3ccnc4[nH]ccc34)c2C1` [YZ001093], 1.4 nM; in that of `C=CC(=O)N1Cc2[nH]nc(-c3ccnc4[nH]ccc34)c2C1` [YZ001076], 0.28 nM.
Same read-out and setting: in the case of `C=C(F)C(=O)N1Cc2c(-c3ccnc4[nH]ccc34)cnn2[C@@H]2CCCC[C@@H]21` [YZ001056] it was 4.2 nM; in that of `C[C@@H]1Cn2ncc(-c3ccnc4[nH]ccc34)c2CN1S(C)(=O)=O` [YZ001011], > 10000 nM; in that of `C=CC(=O)N1CCCCn2ncc(-c3ccnc4[nH]ccc34)c2C1` [YZ001095], 7 nM.
As for `C=CC(=O)N1Cc2c(-c3ncnc4[nH]ccc34)cnn2C[C@@H]1C(C)C` [YZ001033], the IC50 turned out to be 0.12 nM.
The same measure, in the same setting: in the case of `C=CC(=O)N1Cc2c(-c3ccnc4[nH]ccc34)cnn2C[C@H]1CCS(C)(=O)=O` [YZ001074] it was 0.57 nM; in that of `C=C(F)C(=O)N1Cc2[nH]nc(-c3ccnc4[nH]ccc34)c2C1` [YZ001077], 7.1 nM; in that of `C=C(F)C(=O)N1CCc2c(c(-c3ccnc4[nH]ccc34)nn2C(C)=O)C1` [YZ001109], 5.2 nM.
On the same count and under the same terms, in the case of `C=CC(=O)N1Cc2c(-c3ccnc4[nH]cc(C(C)=O)c34)cnn2C[C@@H]1C` [YZ001063] it was 1.4 nM; in that of `C=CC(=O)N1CCn2ncc(-c3ccnc4[nH]ccc34)c2C1` [YZ001002], 0.14 nM.
On the same count and under the same terms, the result for `C=CC(=O)N1CCc2c(c(-c3ccnc4[nH]ccc34)nn2C(C)C)C1` [YZ001117] reads 6.93 nM; that for `C=CC(=O)N1Cc2c(-c3ccnc4[nH]ccc34)n[nH]c2[C@@H]1C` [YZ001091], 5.1 nM; that for `C=CC(=O)N1Cc2c(-c3ccnc4[nH]ccc34)nn(C(C)C)c2C[C@H]1C` [YZ001085], 0.53 nM.
As to `C[C@H]1Cn2ncc(-c3ccnc4[nH]ccc34)c2CN1C(=O)/C=C/CN(C)C` [YZ001022], the IC50 is 0.87 nM.
For the compound `C=CC(=O)N1Cc2c(-c3ncnc4[nH]ccc34)cnn2C[C@@H]1C` [YZ001024], the IC50 came out at 0.15 nM.
On the same count and under the same terms, in the case of `[2H]C([2H])([2H])n1nc(-c2ccnc3[nH]ccc23)c2c1CCN(C(=O)C=C)C2` [YZ001103] it was 0.29 nM.
For the compound `C=CC(=O)N1Cc2c(-c3ccnc4[nH]ccc34)cnn2[C@@H]2CCC[C@@H]21` [YZ001045], the IC50 was determined as 0.19 nM.
Still for that read-out and setting: in the case of `C[C@H]1Cn2ncc(-c3ccnc4[nH]ccc34)c2CN1C(=O)/C=C/CN1CCCCC1` [YZ001023] it was 0.58 nM.
In the case of `C[C@H]1CN(C(=O)/C=C/CN(C)C)Cc2c(-c3ncnc4[nH]ccc34)cnn21` [YZ001027], the IC50 came to 7.8 nM.
For the compound `C=CC(=O)N1Cc2c(-c3ncnc4[nH]ccc34)cnn2C[C@H]1C(C)C` [YZ001030], the IC50 came to 2.4 nM.
Still for that read-out and setting: the result for `C=CC(=O)N1Cc2c(-c3ccnc4[nH]ccc34)cnn2[C@H]2CCC[C@H]21` [YZ001057] reads 0.31 nM; that for `C=CC(=O)N1Cc2c(-c3ncnc4[nH]ccc34)cnn2C[C@H]1C` [YZ001018], 0.48 nM.
As for `C=CC(=O)N1Cc2c(-c3ncnc4[nH]ccc34)cnn2[C@@H](C)C1` [YZ001026], the IC50 was 0.43 nM.
The same measure, in the same setting: in the case of `C=C(F)C(=O)N1Cc2c(-c3ccnc4[nH]ccc34)cnn2[C@H](C)C1` [YZ001100] it was 3.8 nM; in that of `C[C@@H]1Cn2ncc(-c3ccnc4[nH]ccc34)c2CN1C(=O)CCl` [YZ001013], 8.1 nM; in that of `C=CC(=O)N1Cc2c(-c3ncnc4[nH]ccc34)cnn2[C@H](C)C1` [YZ001028], 0.19 nM.
In the case of `CN(C)C/C=C/C(=O)N1Cc2c(-c3ccnc4[nH]ccc34)cnn2[C@@H]2CCC[C@@H]21` [YZ001047], the IC50 stood at 4.5 nM.
Still for that read-out and setting: in the case of `C=CC(=O)N1Cc2c(-c3ccnc4[nH]ccc34)nn(C)c2C[C@H]1C` [YZ001083] it was 1.5 nM.
On the same count and under the same terms, in the case of `C=CC(=O)N1Cc2c(-c3ccnc4[nH]ccc34)cnn2[C@@H]2CCCC[C@@H]21` [YZ001055] it was 0.11 nM.

Another assay concerns SRBC mouse model. Put plainly: SRBC-induced delayed type hypersensitivity (DTH) in mice. Type of assay: in vivo. As to conditions: male Balb/c mice, 100 mg/kg by gavage once a day, day 0 to day 6, FIG. 1. On the procedure:
PF-06651600 was used as a positive control compound.
Drug preparation: the compound was weighed and added with a 0.5% CMC-Na solution to prepare a drug suspension (with an administration dose of 10 mg/mL).
Induction of delayed type hypersensitivity (DTH) and administration: 30 male Balb/c mice were weighed and randomly divided into 6 groups according to body weight, with 5 mice in each group. The experimental period lasted for 7 days in total. On day 0, the mice were subcutaneously injected with sheep red blood cells (SRBCs) for sensitization. From day 0, the mice were administrated with 100 mg/kg by gavage (once a day) until day 6. On day 6, SRBCs were injected into the right hind foot pad of the mice for excitation. On day 7 of the experiment, measurements were conducted, photographs were taken, and the experiment was ended.
Pharmacodynamic detection indicators of disease models: the detection and observation indicators were the degree of redness and swelling and detected thicknesses of paw pads of the mice in the model group as induced by SRBC. The thickness of the right paw was measured as the baseline before the SRBC injection excitation on day 6. At the end of the experiment […], the thickness of the right paw was measured again, and the difference in thickness of the paw before and after the second injection was calculated.
Statistical processing: experimental data was expressed as mean±standard deviation (Mean±SD). All data was statistically analyzed using a T-test. P<0.05 was considered to be statistically different.
On to `C=CC(=O)N1Cc2c(-c3ccnc4[nH]ccc34)nn(C(C)C)c2C[C@H]1C` [YZ001085], for which the “immunosuppressive effect on SRBC-induced delayed type hypersensitivity (right paw thickness)” value is “significant immunosuppressive effects”.

The IC50 is the concentration at which inhibition is half-maximal.
